Results taken from patent publication US20230202997A1, “CHROMANOL, QUINONE OR HYDROQUINONE COMPOUNDS FOR TREATMENT OF SEPSIS” (Sulfateq B.V., priority 2020, published 2023).

System: HUVEC
Assay: LPS-induced mitochondrial oxidative stress in HUVEC (MitoSOX)
Format: cell-based, Human
Conditions: SUL-138 added one hour prior to LPS
Experimental: Human Umbilical Vein Endothelial cells (HUVEC) were obtained from the RuG/UMCG Endothelial Cell Facility. Primary isolates of umbilical cords were mixed and subsequently cultured on HUVEC culture medium, consisted of RPMI 1640 (Lonza, art.nr. BE12-115F) supplemented with 20% heat-inactivated fetal calf serum (ThermoFisher Scientific, art.nr. 10082147), 2 mM 1-glutamine (Life Technologies art.nr. 25030), 5 U/ml heparin (Leo Pharmaceutical Products), 1% Penicillin/Streptomycin (Sigma-Aldrich art.nr. P4333), and 50 μg/ml EC growth factor supplement from (Sigma-Aldrich, art.nr. E2759).
Primary HUVECs were cultured in 75-cm2 tissue culture flasks (Corning, art.nr. 430720U) at 37° C. under 5% CO2/95% air. HUVECs were used for experiments up to passage 8. Experiments were performed in 6-well (Corning art.nr. 3506) or 96-well culture plates (Corning, art.nr. 3596), at 80% confluency. Cells were stimulated with LPS E. coli 0111:B4 (Sigma-Aldrich, art.nr. L2630) in different concentrations. Cells were detached with trypsin (Sigma-Aldrich, art.nr. 25300054). All compounds were dissolved in Hanks Balanced Salt Solution (Lonza, art.nr. 10-527F). […]
Cells and mitochondria were incubated and measured according to manufacturer's protocol in the Synergy H4 micro plate reader (Bio-Tek) at an excitation/emission rate of 548/574 nm.

Cc1c(C)c2c(c(C)c1O)CC[C@@](C)(C(=O)N1CCN(CCO)CC1)O2 [SUL-138, (S)-(6-hydroxy-2,5,7,8-tetramethylchroman-2-yl)(4-(2-hydroxyethyl)piperazin-1-yl)methanone]
LPS induced mitochondrial oxidative stress (MitoSOX): reduces LPS induced mitochondrial oxidative stress
